Test results as given in patent publication US9676789B2, “Aminated derivative of homoharringtonine, preparation method therefor, and application thereof” (HANGZHOU BENSHENG PHARMACEUTICAL CO., LTD., priority 2011, dated 2017).
In brackets after ≈: the same amount, converted by molar mass.

Tests used:
[1] = test system: H9 (acute lymphoblastic leukemia, ALL); experiment: MTT leukemia cell growth inhibition, 72 h; type: cell-based, human; details: Homo sapiens, H9, 72 h; for IC50: read-out: IC50; for IC90: read-out: IC90
Source text: (§1) Leukemia cell lines: K562/adr (drug-resistant, chronic myeloid leukemia, CML), NB4 (acute promyelocytic leukemia, AML), Kasumi-1 (acute myeloid leukemia M2 type, AML-M2), Jurkat (acute lymphoblastic leukemia, ALL), all of which are donated by Cancer Research Institute of Zhejiang University, China; and H9 (acute lymphoblastic leukemia, ALL), which is purchased from China Center for Type Culture Collection.
(§2) Obtaining 6000 well-growing leukemia cells and inoculating them into wells of a 96-well cell culture plate. The culture medium is the 1640 cell culture medium containing 10% fetal bovine serum. After adding the homoharringtonine derivatives of different concentrations and mixing uniformly, placing the plate in a carbon dioxide cell incubator (5% CO2) at 37° C. and incubating for 72 hours. Then the viable cell concentration is determined by the MTT method. In this experiment, the cell viability in control group (not treated with any compound) is set as 100%.

[2] = test system: Jurkat (acute lymphoblastic leukemia, ALL); experiment: MTT leukemia cell growth inhibition, 72 h; type: cell-based, human; details: Homo sapiens; for IC50: read-out: IC50; for IC90: read-out: IC90
Source text: as §1, §2

[3] = test system: K562/adr (drug-resistant, chronic myeloid leukemia, CML); experiment: MTT leukemia cell growth inhibition, 72 h; type: cell-based, human; details: Homo sapiens, K562/Adr; for IC50: read-out: IC50; for IC90: read-out: IC90
Source text: as §1, §2

[4] = test system: Kasumi-1 (acute myeloid leukemia M2 type, AML-M2); experiment: MTT leukemia cell growth inhibition, 72 h; type: cell-based, human; details: Homo sapiens, Kasumi-1, 72 h; for IC50: read-out: IC50; for IC90: read-out: IC90
Source text: as §1, §2

[5] = test system: NB4 (acute promyelocytic leukemia, AML); experiment: MTT leukemia cell growth inhibition, 72 h; type: cell-based, human; details: Homo sapiens, NB4, 72 h; for IC50: read-out: IC50; for IC90: read-out: IC90
Source text: as §1, §2

[6] = test system: RPMI8226 (multiple myeloma); experiment: MTT multiple myeloma cell growth inhibition, 72 h; type: cell-based, human; details: Homo sapiens, RPMI-8226, RPMI8226, 72 h; for IC50: read-out: IC50; for IC90: read-out: IC90
Description: Multiple myeloma and lymphoma cell lines: RPMI8226 (multiple myeloma), purchased from Fuxiang Bio-tech Co. Ltd., Shanghai, China.
as §2, with “method.” for “method. In this experiment, the cell viability in control group (not treated with any compound) is set as 100%.”

A549 (human lung cancer) = experiment: MTT solid tumor cell growth inhibition, 72 h; type: cell-based; details: Homo sapiens, A549, 72 h; for IC50: read-out: IC50; for IC90: read-out: IC90
Description: (§3) Human solid tumor cell lines: Hep-2 ([…]), A549 (human lung cancer), CaES-17 (esophageal cancer cell), PC-3 (prostate cancer), CNE (nasopharyngeal carcinoma cell), and SK-OV-3 (ovarian cancer cell), all of which are purchased from China Center For Type Culture Collection; RKO (human colon adenocarcinoma cell), MGC 803 (human gastric cancer cell), MG63 (osteosarcoma) and U87 MG (malignant glioma cell), all of which are purchased from Fuxiang Bio-tech Co. Ltd., Shanghai, China; PANC-1 (pancreatic cancer), Huh7 (human liver cancer cell), Becap37 (human breast cancer cell), and Hela (human cervical cancer cell), all of which are donated by Cancer Research Institute of Zhejiang University, China.
(§4) Obtaining 4000 well-growing human solid tumor cells and inoculating them into wells of a 96-well cell culture plate. The culture medium is DMEM High Glucose cell culture medium containing 10% fetal bovine serum. The plate is placed in a carbon dioxide cell incubator (5% CO2) at 37° C. and incubating for 24 hours. After adding the homoharringtonine derivatives of different concentration and mixing uniformly, the plate is placed in a carbon dioxide cell incubator (5% CO2) at 37° C. and incubating for 72 hours. Then the viable cell concentration is determined by the MTT method and the cell viability (%) after drug treatment is calculated. In this experiment, the cell viability of control group (not treated with any compound) is set as 100%.

[7] = test system: Becap37 (human breast cancer cell); experiment: MTT solid tumor cell growth inhibition, 72 h; type: cell-based; details: Homo sapiens, Becap37, 72 h; for IC50: read-out: IC50; for IC90: read-out: IC90
Description: as §3, §4

[8] = test system: Huh7 (human liver cancer cell); experiment: MTT solid tumor cell growth inhibition, 72 h; type: cell-based; details: Homo sapiens, Huh-7, Huh7, 72 h; for IC50: read-out: IC50; for IC90: read-out: IC90
Description: as §3, §4

[9] = test system: MGC 803 (human gastric cancer cell); experiment: MTT solid tumor cell growth inhibition, 72 h; type: cell-based; details: Homo sapiens, MGC 803, 72 h; for IC50: read-out: IC50; for IC90: read-out: IC90
Description: as §3, §4

MG63 (osteosarcoma) = experiment: MTT solid tumor cell growth inhibition, 72 h; type: cell-based, human; details: Homo sapiens, MG 63, 72 h; for IC50: read-out: IC50; for IC90: read-out: IC90
Description: as §3, §4

[10] = test system: PANC-1 (pancreatic cancer); experiment: MTT solid tumor cell growth inhibition, 72 h; type: cell-based, human; details: Homo sapiens, PANC-1, 72 h; for IC50: read-out: IC50; for IC90: read-out: IC90
Description: as §3, §4

Row | SMILES | IC50 [1] | IC90 [1] | IC50 [2] | IC90 [2] | IC50 [3] | IC90 [3] | IC50 [4] | IC90 [4] | IC50 [5] | IC90 [5] | IC50 [6] | IC90 [6] | IC50 (A549 (human lung cancer)) | IC90 (A549 (human lung cancer)) | IC50 [7] | IC90 [7] | IC50 [8] | IC90 [8] | IC50 (MG63 (osteosarcoma)) | IC90 (MG63 (osteosarcoma)) | other results
1 | COC1=C[C@]23CCCN2CCc2cc4c(cc2[C@@H]3[C@@H]1OC(=O)[C@@](O)(CCCC(C)(C)O)CC(=O)NCc1ccco1)OCO4 [BS-HH-043] | > 16 µg/mL | > 16 µg/mL | 13 µg/mL (≈ 21.3 µM) | > 16 µg/mL | > 16 µg/mL | > 16 µg/mL | 11.1 µg/mL (≈ 18.1 µM) | > 16 µg/mL | 15 µg/mL (≈ 24.6 µM) | > 16 µg/mL | > 16 µg/mL | > 16 µg/mL | > 16 µg/mL | > 16 µg/mL | > 16 µg/mL | > 16 µg/mL | > 16 µg/mL | > 16 µg/mL | > 16 µg/mL | > 16 µg/mL | IC50 [9]: > 16 µg/mL; IC90 [9]: > 16 µg/mL; IC50 [10]: > 16 µg/mL; IC90 [10]: > 16 µg/mL
2 | COC1=C[C@]23CCCN2CCc2cc4c(cc2[C@@H]3[C@@H]1OC(=O)[C@@](O)(CCCC(C)(C)O)CC(=O)N1CCCC(C)C1)OCO4 (stereo partly shown) [BS-HH-038] | 7.37 µg/mL (≈ 12 µM) | > 16 µg/mL | 1.47 µg/mL (≈ 2.4 µM) | 16 µg/mL (≈ 26.1 µM) | > 16 µg/mL | > 16 µg/mL | 2 µg/mL (≈ 3.26 µM) | 12 µg/mL (≈ 19.6 µM) | 0.32 µg/mL (≈ 0.522 µM) | 4.24 µg/mL (≈ 6.92 µM) | 1.22 µg/mL (≈ 1.99 µM) | 16 µg/mL (≈ 26.1 µM) | 5.72 µg/mL (≈ 9.33 µM) | > 16 µg/mL | 1.95 µg/mL (≈ 3.18 µM) | > 16 µg/mL | 16 µg/mL (≈ 26.1 µM) | > 16 µg/mL | 3.71 µg/mL (≈ 6.05 µM) | > 16 µg/mL | IC50 [10]: 8.83 µg/mL (≈ 14.4 µM); IC90 [10]: > 16 µg/mL
3 | COC1=C[C@]23CCCN2CCc2cc4c(cc2[C@@H]3[C@@H]1OC(=O)[C@@](O)(CCCC(C)(C)O)CC(=O)N1CCCCC1)OCO4 [BS-HH-051] | 7.26 µg/mL (≈ 12.1 µM) | > 16 µg/mL | 1.3 µg/mL (≈ 2.17 µM) | > 16 µg/mL | > 16 µg/mL | > 16 µg/mL | 2 µg/mL (≈ 3.34 µM) | 16 µg/mL (≈ 26.7 µM) | 1.5 µg/mL (≈ 2.51 µM) | 16 µg/mL (≈ 26.7 µM) | 1.7 µg/mL (≈ 2.84 µM) | 16 µg/mL (≈ 26.7 µM) | 6.96 µg/mL (≈ 11.6 µM) | > 16 µg/mL | 1.99 µg/mL (≈ 3.32 µM) | > 16 µg/mL | > 16 µg/mL | > 16 µg/mL | 2.72 µg/mL (≈ 4.54 µM) | > 16 µg/mL | IC50 [9]: 1.9 µg/mL (≈ 3.17 µM); IC90 [9]: 26.7 µg/mL (≈ 44.6 µM); IC50 [10]: 6.84 µg/mL (≈ 11.4 µM); IC90 [10]: > 16 µg/mL
4 | COC1=C[C@]23CCCN2CCc2cc4c(cc2[C@@H]3[C@@H]1OC(=O)[C@@](O)(CCCC(C)(C)O)CC(=O)N1CCC(C#N)CC1)OCO4 [BS-HH-035] | 5.49 µg/mL (≈ 8.8 µM) | > 16 µg/mL | 0.87 µg/mL (≈ 1.39 µM) | > 16 µg/mL | 14.1 µg/mL (≈ 22.6 µM) | > 16 µg/mL | 0.8 µg/mL (≈ 1.28 µM) | 2.96 µg/mL (≈ 4.75 µM) | 0.72 µg/mL (≈ 1.15 µM) | 6.3 µg/mL (≈ 10.1 µM) | 1.44 µg/mL (≈ 2.31 µM) | 14.1 µg/mL (≈ 22.7 µM) | 5.41 µg/mL (≈ 8.67 µM) | > 16 µg/mL | 3.75 µg/mL (≈ 6.01 µM) | > 16 µg/mL | 4.46 µg/mL (≈ 7.15 µM) | > 16 µg/mL | 1.98 µg/mL (≈ 3.17 µM) | > 16 µg/mL | IC50 [9]: 1.79 µg/mL (≈ 2.87 µM); IC90 [9]: 9.2 µg/mL (≈ 14.7 µM); IC50 [10]: 5.02 µg/mL (≈ 8.05 µM); IC90 [10]: > 16 µg/mL
